These are literature values, as cited in US20260345571A1, “DELAMANID-CONTAINING SOLID DISPERSION” (priority 2022, published 2026).

The subject of data set [1] is Mycobacterium tuberculosis. To be noted: PTL 1.
Data set [2] has as its system atypical mycobacteria. To be noted: PTL 1.
The conditions of data set [3]: melting point about 195 °C (decomposition).

Turning to `C[C@]1(COc2ccc(N3CCC(Oc4ccc(OC(F)(F)F)cc4)CC3)cc2)Cn2cc([N+](=O)[O-])nc2O1` [Delamanid, (2R)-2-methyl-6-nitro-2-[(4-{4-[4-(trifluoromethoxy)phenoxy]piperidin-1-yl}phenoxy)methyl]-2,3-dihydroimidazo[2,1-b]oxazole], the “Bactericidal action against Mycobacterium tuberculosis” value in data set [1] is “excellent bactericidal action”. The “Bactericidal action against atypical mycobacteria” value in data set [2] is “excellent bactericidal action”. Moreover, the Thermal stability entry in data set [3] is given as “poor thermal stability”.
